Reference: publication PMC7619385 (ACS infectious diseases, 2025)
Where two headings read alike, the source gives them in different places.

Target: T1, LmxCLK1 (Leishmania mexicana, UniProt E9AMP2)
T1 sequence (E9AMP2 1-422): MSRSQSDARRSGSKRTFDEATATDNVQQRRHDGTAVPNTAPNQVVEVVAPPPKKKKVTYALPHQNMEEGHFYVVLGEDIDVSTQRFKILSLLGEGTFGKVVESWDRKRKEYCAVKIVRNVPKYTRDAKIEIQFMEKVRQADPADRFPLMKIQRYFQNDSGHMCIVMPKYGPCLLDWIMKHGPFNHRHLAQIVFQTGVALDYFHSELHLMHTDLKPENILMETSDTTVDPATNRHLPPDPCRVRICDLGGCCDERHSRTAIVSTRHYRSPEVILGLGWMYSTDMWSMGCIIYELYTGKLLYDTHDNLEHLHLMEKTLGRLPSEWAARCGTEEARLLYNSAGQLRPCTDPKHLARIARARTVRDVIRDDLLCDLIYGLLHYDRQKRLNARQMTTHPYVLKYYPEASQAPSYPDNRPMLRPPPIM
Experiment: biochemical
Type: binding

[1] = DSF, 10 µM compound, 2 µM LmxCLK1, Run 1
[2] = DSF, 10 µM compound, 2 µM LmxCLK1, Run 2
[3] = DSF, 10 µM compound, 2 µM LmxCLK1, mean of two runs
[4] = DSF, 10 µM compound, 2 µM LmxCLK1, Run 1, read-out: ΔTm Run 1
[5] = DSF, 10 µM compound, 2 µM LmxCLK1, Run 2, read-out: ΔTm Run 2
[6] = DSF, 10 µM compound, 2 µM LmxCLK1, mean of two runs, read-out: ΔTm Average

Molecule	ΔTm Run 1 [1]	ΔTm Run 2 [2]	ΔTm Average [3]	ΔTm at 10 µM [4]	ΔTm at 10 µM [5]	ΔTm at 10 µM [6]	further results
Nc1ncnc2c1c(-c1cccc(OCc3ccccc3)c1)cn2C1CC(CN2CCCC2)C1 (centres unmarked) [NVP-ADW742]	0.0 °C	-0.2 °C	-0.1 °C	–	–	–	–
Nc1nc(N)c2nc(-c3cccc(O)c3)c(-c3cccc(O)c3)nc2n1 [TG100-115]	–	–	–	–	–	–	ΔTm Average: 1.5 °C; ΔTm Run 1: 1.7 °C; ΔTm Run 2: 1.3 °C
CA75 (GAK)	–	–	–	–	–	–	ΔTm Average: -0.1; ΔTm Run 1: -0.2; ΔTm Run 2: 0 °C
CC(=O)Nc1cccc(-n2c(=O)n(C3CC3)c(=O)c3c(Nc4ccc(I)cc4F)n(C)c(=O)c(C)c32)c1 [Trametinib (GSK1120212)]	–	–	–	0 °C	-0.5 °C	-0.2 °C	–
Cc1nc(NC(=O)N2CCC[C@H]2C(N)=O)sc1-c1csc(C(C)(C)C)n1 [A66]	–	–	–	–	–	–	ΔTm Average: 0 °C; ΔTm Run 1: 0.4 °C; ΔTm Run 2: -0.3
O=C(NC[C@H](O)CO)c1ccncc1Nc1ccc(I)cc1F [Pimasertib (AS-703026)]	0.2 °C	-0.1 °C	0.0 °C	–	–	–	–
CN1CCC(CNc2ccc3ncc(-c4cccc(OC(F)(F)F)c4)n3n2)CC1 [SGI-1776 free base]	0.7 °C	0.5 °C	0.6 °C	–	–	–	–
CCN(CC)CCCCNc1ncc2cc(-c3cc(OC)cc(OC)c3)c(NC(=O)NC(C)(C)C)nc2n1 [PD173074]	–	–	–	0.1 °C	-0.1 °C	0 °C	–
Cc1cc(Nc2cc(CN3CCOCC3)c3nc(C)c(Cc4ccc(Cl)cc4F)n3n2)n[nH]1 [LY2784544]	–	–	–	-0.3 °C	-0.4 °C	-0.4 °C	–
CN1CCN(c2ccc(OC(F)(F)F)c(Nc3ncc4c(n3)-c3c(c(C(N)=O)nn3CCO)CC4)c2)CC1 [NMS-P937 (NMS1286937)]	0.0 °C	0.0 °C	0.0 °C	–	–	–	–
CN1CCN(c2cccc(Nc3nc4c(-c5ccc(S(C)(=O)=O)cc5)cccn4n3)c2)CC1 [CEP-33779]	0.5 °C	0.5 °C	0.5 °C	–	–	–	–
CCc1cncnc1N1CCN(Cc2nc3ccc(C(F)(F)F)cc3[nH]2)CC1 [PF-4708671]	–	–	–	–	–	–	ΔTm Average: -0.1; ΔTm Run 1: 0.1 °C; ΔTm Run 2: -0.2
Cc1cc(CN2CCN(c3c(Br)cnc4nc(-c5ccc(N6CCN(C)CC6)cc5)[nH]c34)CC2)no1 [CCT137690]	0.3 °C	0.4 °C	0.3 °C	–	–	–	–
C[C@@H](Oc1cc(-n2cnc3ccc(CN4CCN(C)CC4)cc32)sc1C(N)=O)c1ccccc1C(F)(F)F [GSK461364]	–	–	–	0.6 °C	0.1 °C	0.4 °C	–
C1=N/C2=N/c3ccc(OCCN4CCCC4)c(c3)COC/C=C/COCc3cccc(c3)C(=C1)N2 [Pacritinib (SB1518)]	0.2 °C	0.1 °C	0.2 °C	–	–	–	–
CCC[C@H](NC(=O)/C(C#N)=C/c1cccc(Br)n1)c1ccccc1 [Degrasyn (WP1130)]	0.4 °C	0.2 °C	0.3 °C	–	–	–	–
COc1ccc(-c2ccc3c(N4CCOC[C@@H]4C)nc(N4CCOC[C@@H]4C)nc3n2)cc1CO [AZD8055]	–	–	–	0.4 °C	0.3 °C	0.3 °C	–
C=CC(=O)Nc1cc(Nc2nccc(-c3cn(C)c4ccccc34)n2)c(OC)cc1N(C)CCN(C)C [AZD9291]	–	–	–	0 °C	-0.3 °C	-0.2 °C	–

Molecule	ΔTm Run 1 [1]	ΔTm Run 2 [2]	ΔTm Average [3]	ΔTm at 10 µM [4]	ΔTm at 10 µM [5]	ΔTm at 10 µM [6]	further results
O=C(Nc1cc(C(F)(F)F)cc(C(F)(F)F)c1)c1cc(Cl)ccc1O [IMD 0354]	–	–	–	0.2 °C	-0.1 °C	0 °C	–
CN1CCN(C2CCN(C(=O)Nc3cc(Oc4ccc(NC(=O)C5(C(=O)Nc6ccc(F)cc6)CC5)c(F)c4)ccn3)CC2)CC1 [Golvatinib (E7050)]	–	–	–	–	–	–	ΔTm at 10 µM (read-out: ΔTm Average): 0.6 °C; ΔTm at 10 µM (read-out: ΔTm Run 1): 0.5 °C; ΔTm at 10 µM (read-out: ΔTm Run 2): 0.7 °C
Nc1ccc(C(=O)Nc2cccc(-c3nc(N4CCOCC4)c4oc5ncccc5c4n3)c2)cn1 [YM201636]	–	–	–	–	–	–	ΔTm Run 1: 0.4 °C; ΔTm Run 2: 0 °C
CC(C)(C#N)c1ccc(N2C(=O)OCc3cnc4ccc(-c5cnc6ccccc6c5)cc4c32)cc1 [ETP-46464]	0.3 °C	-0.4 °C	-0.1 °C	–	–	–	–
COc1ccc(S(=O)(=O)N(CCO)c2ccccc2CN(C)C/C=C/c2ccc(Cl)cc2)cc1.O=P(O)(O)O [KN-93 Phosphate]	0.1 °C	-0.5 °C	-0.2 °C	–	–	–	–
CO[C@H]1C[C@@H]2CC[C@@H](C)[C@@](O)(O2)C(=O)C(=O)N2CCCC[C@H]2C(=O)O[C@H]([C@H](C)C[C@@H]2CC[C@@H](OP(C)(C)=O)[C@H](OC)C2)CC(=O)[C@H](C)/C=C(\C)[C@@H](O)[C@@H](OC)C(=O)[C@H](C)C[C@H](C)/C=C/C=C/C=C/1C [Ridaforolimus (Deforolimus)]	0.0 °C	0.0 °C	0.0 °C	–	–	–	–
O=C(c1cccc(Cl)c1F)N1CCN(Cc2cccc(Nc3nccs3)n2)CC1 [MK-8745]	1.1 °C	1.0 °C	1.0 °C	–	–	–	–
CNCc1ccc(-c2cc(-c3nc(-c4ccc(S(=O)(=O)C(C)C)cc4)cnc3N)on2)cc1 [VE-822]	–	–	–	0.6 °C	0.1 °C	0.4 °C	–
COc1ccc(CNC(=O)Nc2ncc([N+](=O)[O-])s2)cc1 [AR-A014418]	0.0 °C	-0.1 °C	-0.1 °C	–	–	–	–
CO[C@H]1C[C@@H]2CC[C@@H](C)[C@@](O)(O2)C(=O)C(=O)N2CCCC[C@H]2C(=O)O[C@H]([C@H](C)C[C@@H]2CC[C@@H](OC(=O)C(C)(CO)CO)[C@H](OC)C2)CC(=O)[C@H](C)/C=C(\C)[C@@H](O)[C@@H](OC)C(=O)[C@H](C)C[C@H](C)/C=C/C=C/C=C/1C [Temsirolimus (CCI-779)]	-0.1 °C	-0.3 °C	-0.2 °C	–	–	–	–
Cl.Cl.Clc1ccc(Nc2nnc(Cc3ccncc3)c3ccccc23)cc1 [Vatalanib (PTK787) 2HCl]	-0.2 °C	0.0 °C	-0.1 °C	–	–	–	–
CCc1cc(Nc2nccc(-c3c(-c4ccc(OC)c(C(=O)Nc5c(F)cccc5F)c4)nc4ccccn34)n2)c(OC)cc1N1CCC(N2CCN(S(C)(=O)=O)CC2)CC1 [GSK1904529A]	–	–	–	–	–	–	ΔTm Average: 0.2 °C; ΔTm Run 1: 0.2 °C; ΔTm Run 2: 0.1 °C
Cc1c(CN2CCN(C(=O)[C@H](C)O)CC2)sc2c(N3CCOCC3)nc(-c3cnc(N)nc3)nc12 [GDC-0980 (RG7422)]	–	–	–	0.1 °C	-0.1 °C	0 °C	–
C=CC(=O)Nc1cccc(Nc2nc(Nc3ccc(OCCOC)cc3)ncc2F)c1 [AVL-292]	–	–	–	0 °C	-0.2 °C	-0.1 °C	–
CO[C@H]1C[C@@H]2CC[C@@H](C)[C@@](O)(O2)C(=O)C(=O)N2CCCC[C@H]2C(=O)O[C@H]([C@H](C)C[C@@H]2CC[C@@H](O)[C@H](OC)C2)CC(=O)[C@H](C)/C=C(\C)[C@@H](O)[C@@H](OC)C(=O)[C@H](C)C[C@H](C)/C=C/C=C/C=C/1C [Rapamycin (Sirolimus)]	–	–	–	0.3 °C	-0.1 °C	0.1 °C	–
Cc1[nH]nc2ccc(-c3cncc(OC[C@@H](N)Cc4ccccc4)c3)cc12 [A-674563]	–	–	–	–	–	–	ΔTm Average: 0.7 °C; ΔTm Run 1: 0.8 °C; ΔTm Run 2: 0.6 °C
COc1ncccc1-c1cnn2ccc(N3CCN(C(=O)OC(C)C)CC3)nc12 [LP-935509 (AAK1)]	-0.2 °C	-0.4 °C	-0.3 °C	–	–	–	–
CCO.N#CC(=C(/N)Sc1ccccc1N)/C(C#N)=C(\N)Sc1ccccc1N [U0126-EtOH]	–	–	–	–	–	–	ΔTm Average: -0.1; ΔTm Run 1: -0.4; ΔTm Run 2: 0.1 °C
